Laboratory results published in article PMC8911944, “Screening of Natural Products Inhibitors of SARS-CoV-2 Entry” (Molecules, 2022).

System: pseudotyped HIV-1 with the D614G SARS-CoV-2 spike glycoprotein
Type: cell-based

| Molecule | Antiviral Activity (% of Inhibition) [%] | IC50 (50% inhibitory concentration) |
| --- | --- | --- |
| CC1=C[C@H](O)[C@H]2C[C@@H]1C2(C)C (relative stereo) [cis-Verbenol] | −171.26 ± 32.54 |  |
| C/C=C/[C@H]1OC(=O)C=C[C@H]1OC(C)=O [Acetylphomolactone] | −0.65 ± 6.16 |  |
| CC(=O)OC1C=CC(=O)OC1C1OC1C (stereo not drawn) [Asperline] | −15.48 ± 8.34 |  |
| CC(=O)C1COC(O)C1C (stereo not drawn) [Botryodiplodin] | −88.21 ± 12.51 |  |
| C=C1CC[C@H]2O[C@]2(C)CC[C@@H]2[C@@H]1CC2(C)C [Caryophyllene Oxide] | 43.82 ± 6.31 |  |
| C[C@H]1CC[C@@H](C(C)(C)O)CC2=C1CC[C@@H]2C [Guaiol] | −60.20 ± 8.02 |  |
| CC(O)[C@@H]1NC(=O)c2cccn2C1=O (stereo partly drawn) [Macrophominol] | −91.39 ± 26.65 |  |
| C=C(C)[C@H]1CC=C(C)CC1 [R-Limonene] | −27.90 ± 16.41 |  |
| C/C=C/c1ccc(OC)cc1 [Trans-anethole] | 5.02 ± 0.71 |  |
| C=C1CC/C=C(\C)CC[C@@H]2[C@@H]1CC2(C)C [β-Caryophyllene] |  | 98.5 |
| Isoasperline | −19.82 ± 10.21 |  |
| S-Limonene | −62.63 ± 22.17 |  |
